Measured values as given in paper PMC10894229, “Novel antimicrobial peptides against Cutibacterium acnes designed by deep learning” (Scientific Reports, 2024).
Like-named read-outs stand apart in the source and are kept apart here.

Tested on: C. acnes (BNCC 336649)
Conditions: for Antimicrobial activity > 50% against C. acnes: broth microdilution, 48 h, OD 630 nm; for Category of in vitro test antimicrobial activity against C. acnes / Concentration with antimicrobial activity >50%: supplementary Table 5; for Concentration with antimicrobial activity >50%: C. acnes
Procedure: The strain of C. acnes (BNCC 336649) was cultured in Wilkins-Chalgren Anaerobe Broth (QingDao RiShui Bio-technologies, 11071) at 37 °C under an anaerobic atmosphere performed by a Labiophy HL-B automatic hypoxic workstation (Dalian, Liaoning Province, Labiophy HL-B), inflated with a gas mix of 15% carbon dioxide, 83% nitrogen, and 2% hydrogen.
Logarithmic phase growth bacteria were used for antimicrobial testing.
To determine the MIC values, the broth microdilution method was used. […] Briefly, peptide samples were prepared as a stock solution in water and then diluted. 180 μL of the bacterial suspension (10^7 CFU/mL) and 20 μL of the tested sample were added together into 96-Well Deep Well Plates and incubated 24 h for E. coli and S. aureus or 48 h for C. acnes and C. albicans. For each test, two columns of the plate were kept for sterility control (broth only) and growth control (broth with bacterial inoculums, no antibiotics). The optical density of cultures was measured at 630 nm by a microplate reader (SYNERGY-H1, BioTek, USA) to estimate bacterial growth. All experiments were conducted in triplicate. We used ciprofloxacin (CPFX) as the antibiotic control for antimicrobial testing.

| Sequence | Antimicrobial activity > 50% against C. acnes (at 25 µg/mL) | Antimicrobial activity > 50% against C. acnes (at 50 µg/mL) | Antimicrobial activity > 50% against C. acnes (at 100 µg/mL) | Category of in vitro test antimicrobial activity against C. acnes | Concentration with antimicrobial activity >50% |
| --- | --- | --- | --- | --- | --- |
| GLVSRLRRLVTPLL [AMP-4] | No (A peptide was deemed to have antimicrobial activity if C. acnes growth was inhibited by more than 50% at a given concentration) | Inhibit (A peptide was deemed to have antimicrobial activity if C. acnes growth was inhibited by more than 50% at a given concentration) | Inhibit (A peptide was deemed to have antimicrobial activity if C. acnes growth was inhibited by more than 50% at a given concentration) | Medium AMP |  |
| KRLIKWLNVAKKVV [AMP-3] | No (A peptide was deemed to have antimicrobial activity if C. acnes growth was inhibited by more than 50% at a given concentration) | No (A peptide was deemed to have antimicrobial activity if C. acnes growth was inhibited by more than 50% at a given concentration) | Inhibit (A peptide was deemed to have antimicrobial activity if C. acnes growth was inhibited by more than 50% at a given concentration) | Weak AMP | 100 µg/mL |
| GIGALVKFLPKLFK [AMP-41] | Inhibit (A peptide was deemed to have antimicrobial activity if C. acnes growth was inhibited by more than 50% at a given concentration) | Inhibit (A peptide was deemed to have antimicrobial activity if C. acnes growth was inhibited by more than 50% at a given concentration) | Inhibit (A peptide was deemed to have antimicrobial activity if C. acnes growth was inhibited by more than 50% at a given concentration) | Medium AMP | 25 µg/mL |
| KKLAGLAWKALRKAK [AMP-6] | No (A peptide was deemed to have antimicrobial activity if C. acnes growth was inhibited by more than 50% at a given concentration) | No (A peptide was deemed to have antimicrobial activity if C. acnes growth was inhibited by more than 50% at a given concentration) | Inhibit (A peptide was deemed to have antimicrobial activity if C. acnes growth was inhibited by more than 50% at a given concentration) | Weak AMP | 100 µg/mL |
| SKILGKLTKAAKIAW [AMP-28] | No (A peptide was deemed to have antimicrobial activity if C. acnes growth was inhibited by more than 50% at a given concentration) | No (A peptide was deemed to have antimicrobial activity if C. acnes growth was inhibited by more than 50% at a given concentration) | No (A peptide was deemed to have antimicrobial activity if C. acnes growth was inhibited by more than 50% at a given concentration) | No AMP | no |
| LQLLKQFRKVLKKLS [AMP-13] | Inhibit (A peptide was deemed to have antimicrobial activity if C. acnes growth was inhibited by more than 50% at a given concentration) | Inhibit (A peptide was deemed to have antimicrobial activity if C. acnes growth was inhibited by more than 50% at a given concentration) | Inhibit (A peptide was deemed to have antimicrobial activity if C. acnes growth was inhibited by more than 50% at a given concentration) | Medium AMP | 25 µg/mL |
| KKLAGLAKKWWKPLR [AMP-22] | No (A peptide was deemed to have antimicrobial activity if C. acnes growth was inhibited by more than 50% at a given concentration) | Inhibit (A peptide was deemed to have antimicrobial activity if C. acnes growth was inhibited by more than 50% at a given concentration) | Inhibit (A peptide was deemed to have antimicrobial activity if C. acnes growth was inhibited by more than 50% at a given concentration) | Medium AMP |  |
| DALRALHHLLKRAL [AMP-42] | No (A peptide was deemed to have antimicrobial activity if C. acnes growth was inhibited by more than 50% at a given concentration) | No (A peptide was deemed to have antimicrobial activity if C. acnes growth was inhibited by more than 50% at a given concentration) | No (A peptide was deemed to have antimicrobial activity if C. acnes growth was inhibited by more than 50% at a given concentration) | No AMP | no |
| KLVKRVLKKLRKLF [AMP-8] | Inhibit (A peptide was deemed to have antimicrobial activity if C. acnes growth was inhibited by more than 50% at a given concentration) | Inhibit (A peptide was deemed to have antimicrobial activity if C. acnes growth was inhibited by more than 50% at a given concentration) | Inhibit (A peptide was deemed to have antimicrobial activity if C. acnes growth was inhibited by more than 50% at a given concentration) | Strong AMP |  |
| RISSLLKRLAIKIK [AMP-16] | Inhibit (A peptide was deemed to have antimicrobial activity if C. acnes growth was inhibited by more than 50% at a given concentration) | Inhibit (A peptide was deemed to have antimicrobial activity if C. acnes growth was inhibited by more than 50% at a given concentration) | Inhibit (A peptide was deemed to have antimicrobial activity if C. acnes growth was inhibited by more than 50% at a given concentration) | Medium AMP | 25 µg/mL |
| FLKKLRTAVLKLTKG [AMP-17] | Inhibit (A peptide was deemed to have antimicrobial activity if C. acnes growth was inhibited by more than 50% at a given concentration) | Inhibit (A peptide was deemed to have antimicrobial activity if C. acnes growth was inhibited by more than 50% at a given concentration) | Inhibit (A peptide was deemed to have antimicrobial activity if C. acnes growth was inhibited by more than 50% at a given concentration) | Medium AMP | 25 µg/mL |
| KIAKRLAKKILNAI [AMP-10] | Inhibit (A peptide was deemed to have antimicrobial activity if C. acnes growth was inhibited by more than 50% at a given concentration) | Inhibit (A peptide was deemed to have antimicrobial activity if C. acnes growth was inhibited by more than 50% at a given concentration) | Inhibit (A peptide was deemed to have antimicrobial activity if C. acnes growth was inhibited by more than 50% at a given concentration) | Strong AMP | 12.5 µg/mL |
| VKRILKWAFK [AMP-1] | No (A peptide was deemed to have antimicrobial activity if C. acnes growth was inhibited by more than 50% at a given concentration) | Inhibit (A peptide was deemed to have antimicrobial activity if C. acnes growth was inhibited by more than 50% at a given concentration) | Inhibit (A peptide was deemed to have antimicrobial activity if C. acnes growth was inhibited by more than 50% at a given concentration) | Medium AMP |  |
| GLTLLKKFLHAAKKF [AMP-23] | Inhibit (A peptide was deemed to have antimicrobial activity if C. acnes growth was inhibited by more than 50% at a given concentration) | Inhibit (A peptide was deemed to have antimicrobial activity if C. acnes growth was inhibited by more than 50% at a given concentration) | Inhibit (A peptide was deemed to have antimicrobial activity if C. acnes growth was inhibited by more than 50% at a given concentration) | Medium AMP | 25 µg/mL |
| FKRLQKLLFTLKQK [AMP-40] | No (A peptide was deemed to have antimicrobial activity if C. acnes growth was inhibited by more than 50% at a given concentration) | No (A peptide was deemed to have antimicrobial activity if C. acnes growth was inhibited by more than 50% at a given concentration) | No (A peptide was deemed to have antimicrobial activity if C. acnes growth was inhibited by more than 50% at a given concentration) | No AMP | no |
